Data reported in US8598130B2, “Insecticidal combinations” (priority 2008, dated 2013).

System: mites
Experiment: Field trial of mite control on field beans variety Paloma, foliar spray
Assay type: in vivo
Conditions: for Observed, % control of mites 6DAA3: 6 days after application 3, rate g/ha: abamectin 6.7, cyflumetofen 150, combination 6.7 & 150, percentage compared to non-treated control; for Observed, % control of mites 14DAA3: fourteen days after application 3, rate g/ha: abamectin 6.7, cyflumetofen 150, combination 6.7 & 150, percentage compared to non-treated control; for Observed, % control of mites 6DAA1: six days after application 1, rate g/ha: abamectin 6.7, cyflumetofen 150, combination 6.7 & 150, percentage compared to non-treated control; for Observed, % control of mites 6DAA2: six days after application 2, rate g/ha: abamectin 6.7, cyflumetofen 150, combination 6.7 & 150, percentage compared to non-treated control
Description: The action to be expected E for a given active ingredient combination obeys the so-called COLBY formula and can be calculated as follows (COLBY, S. R. “Calculating synergistic and antagonistic responses of herbicide combination”. Weeds, Vol. 15, pages 20-22; 1967): • ppm=milligrams of active ingredient (=a.i.) per liter of spray mixture • X=% action by active ingredient A) using p ppm of active ingredient • Y=% action by active ingredient B) using q ppm of active ingredient.
According to COLBY, the expected (additive) action of active ingredients A)+B) using p+q ppm of active ingredient is
If the action actually observed (O is greater than the expected action (E), then the action of the combination is super-additive, i.e. there is a synergistic effect.
Trials are conducted on field beans variety Paloma to determine the effects of the present combination.
The trials are carried out on a plot is 1 m^2, with three replicates for each trial and spray volume ranges from 1500-1600 l/ha.
The first application of the pesticide formulation (whether solo or combination) is at pest threshold as foliar spray (at 35 days after planting). Thereafter the second and third foliar applications are at 42 and 49 days after planting.
The assessment of the mite control is carried out on the basis of number of mites on five leaves for each plot at the times indicated in the table (i.e., six days after application 1 (6DAA1), six days after application 2 (6DAA2), 6 days after application 3 (6DAA3), and fourteen days after application 3 (14DAA3)). The values are given as a percentage compared to a non-treated control.
The Table below also provides the expected % control for the combination based on the Colby formula.

Compound | Observed, % control of mites 6DAA3 [%] | Observed, % control of mites 14DAA3 [%] | Observed, % control of mites 6DAA1 [%] | Observed, % control of mites 6DAA2 [%]
COCCOC(=O)C(C#N)(C(=O)c1ccccc1C(F)(F)F)c1ccc(C(C)(C)C)cc1 (centres unmarked) [cyflumetofen] | 26 | 32 | 79 | 64
abamectin | 59 | 66 | 92 | 32
